Results reported in PMC5513091, “A novel Alzheimer’s disease drug candidate targeting inflammation and fatty acid metabolism” (Alzheimer's Research & Therapy, 2017).

Tested on: cortex metabolites
Test: Metabolomic analysis of cortex
Assay type: in vivo, mice
Protocol: Metabolomic analyses were conducted at Metabolon (Durham, NC, USA) as described previously. For statistical analyses and data display, any missing values were assumed to be below the limits of detection and imputed with the compound minimum (minimum value imputation). An estimate of the FDR (Q value) was calculated to take into account the multiple comparisons that normally occur in metabolomics-based studies, with Q < 0.05 used as an indication of high confidence in a result. The MetaboAnalyst tool was used to generate heat maps.

**Q.** Which results are given for `Cc1ccc(N(/N=C/c2cccc(OC(F)(F)F)c2)C(=O)C(F)(F)F)c(C)c1` [CAD-31]?
**A.** monoacylglycerols in brain (AD mice, only significant drug effect): an increase in monoacylglycerols; Long-chain fatty acids and monoacylglycerols in brain (WT mice): decreased; acetyl-CoA, ketone bodies, and acyl carnitines in brain (WT mice): increased; ergothioneine Fold Change (cortex, AD+31/AD, p-value 8.4373e-5): 0.57; N-acetylalanine Fold Change (cortex, AD+31/AD, p-value 0.0006): 0.84; glycerate Fold Change (cortex, AD+31/AD, p-value 0.0086): 0.65; 2-oleoylglycerol (18:1) Fold Change (cortex, AD+31/AD, p-value 0.0105): 1.51; 1-palmitoylglycerol (16:0) Fold Change (cortex, AD+31/AD, p-value 0.0153): 1.41; 2-methylcitrate/homocitrate Fold Change (cortex, AD+31/AD, p-value 0.0221): 1.13; hypoxanthine Fold Change (cortex, AD+31/AD, p-value 0.0231): 0.89; N-acetylneuraminate Fold Change (cortex, AD+31/AD, p-value 0.0277): 0.85; 2-palmitoylglycerol (16:0) Fold Change (cortex, AD+31/AD, p-value 0.031): 1.57; 1-palmitoyl-GPG (16:0)* Fold Change (cortex, AD+31/AD, p-value 0.0317): 1.85; azelate (nonanedioate) Fold Change (cortex, AD+31/AD, p-value 0.0374): 0.73; ribose Fold Change (cortex, AD+31/AD, p-value 0.0378): 0.84; arachidate (20:0) Fold Change (cortex, AD+31/AD, p-value 0.0406): 1.47; N-delta-acetylornithine Fold Change (cortex, AD+31/AD, p-value 0.0407): 1.32; 3-sulfo-nervonoyl-galactosylceramide (d18:1/24:1) Fold Change (cortex, AD+31/AD, p-value 0.0443): 1.08; 1-oleoylglycerol (18:1) Fold Change (cortex, AD+31/AD, p-value 0.0513): 1.46; 1-stearoyl-GPG (18:0) Fold Change (cortex, AD+31/AD, p-value 0.055): 1.87; N-acetylglutamate Fold Change (cortex, AD+31/AD, p-value 0.0559): 0.92; linoleoyl ethanolamide Fold Change (cortex, AD+31/AD, p-value 0.0645): 1.62; N-acetylglucosaminylasparagine Fold Change (cortex, AD+31/AD, p-value 0.0691): 0.92; tricosenoate (23:1) Fold Change (cortex, AD+31/AD, p-value 0.0711): 1.54; 2'-deoxycytidine Fold Change (cortex, AD+31/AD, p-value 0.088): 0.85; nonadecanoate (19:0) Fold Change (cortex, AD+31/AD, p-value 0.0981): 1.35; palmitate (16:0) Fold Change (cortex, AD+31/AD, p-value 0.1021): 1.36; erucate (22:1n9) Fold Change (cortex, AD+31/AD, p-value 0.1047): 1.44; 5-methylthioadenosine (MTA) Fold Change (cortex, AD+31/AD, p-value 0.1124): 1.12; stearate (18:0) Fold Change (cortex, AD+31/AD, p-value 0.1164): 1.35; eicosenoate (20:1) Fold Change (cortex, AD+31/AD, p-value 0.1281): 1.43; oleate/vaccenate (18:1) Fold Change (cortex, AD+31/AD, p-value 0.1397): 1.39; adrenate (22:4n6) Fold Change (cortex, AD+31/AD, p-value 0.1408): 1.56; 1-oleoyl-2-linoleoyl-GPC (18:1/18:2)* Fold Change (cortex, AD+31/AD, p-value 0.1443): 1.12; glutamate, gamma-methyl ester Fold Change (cortex, AD+31/AD, p-value 0.157): 0.73; docosadienoate (22:2n6) Fold Change (cortex, AD+31/AD, p-value 0.1608): 1.38; beta-citrylglutamate Fold Change (cortex, AD+31/AD, p-value 0.1678): 1.19; methylphosphate Fold Change (cortex, AD+31/AD, p-value 0.1679): 1.13; pyroglutamine* Fold Change (cortex, AD+31/AD, p-value 0.1791): 1.11; glycerophosphoglycerol Fold Change (cortex, AD+31/AD, p-value 0.1865): 0.93; dihomo-linoleate (20:2n6) Fold Change (cortex, AD+31/AD, p-value 0.1892): 1.35; docosatrienoate (22:3n3) Fold Change (cortex, AD+31/AD, p-value 0.1893): 1.69; arabinose Fold Change (cortex, AD+31/AD, p-value 0.2015): 0.93; UDP-glucose Fold Change (cortex, AD+31/AD, p-value 0.209): 1.28; UDP-N-acetylglucosamine/galactosamine Fold Change (cortex, AD+31/AD, p-value 0.2104): 0.95; 1-palmitoyl-2-gamma-linolenoyl-GPC (16:0/18:3n6)* Fold Change (cortex, AD+31/AD, p-value 0.213): 0.91; 1-arachidonylglycerol (20:4) Fold Change (cortex, AD+31/AD, p-value 0.2257): 1.2; hippurate Fold Change (cortex, AD+31/AD, p-value 0.2339): 1.5; mead acid (20:3n9) Fold Change (cortex, AD+31/AD, p-value 0.2367): 1.39; 2-hydroxydecanoate Fold Change (cortex, AD+31/AD, p-value 0.2531): 0.84; glycerol 3-phosphate Fold Change (cortex, AD+31/AD, p-value 0.2532): 0.91; 10-nonadecenoate (19:1n9) Fold Change (cortex, AD+31/AD, p-value 0.2636): 1.26; methionine Fold Change (cortex, AD+31/AD, p-value 0.2665): 1.1; 1-docosahexaenoylglycerol (22:6) Fold Change (cortex, AD+31/AD, p-value 0.2822): 1.21; 3-hydroxy-3-methylglutarate Fold Change (cortex, AD+31/AD, p-value 0.2908): 0.95; anserine Fold Change (cortex, AD+31/AD, p-value 0.2924): 1.14; N-formylmethionine Fold Change (cortex, AD+31/AD, p-value 0.3078): 0.94; 3-hydroxybutyrylcarnitine (2) Fold Change (cortex, AD+31/AD, p-value 0.3124): 1.37; acetylphosphate Fold Change (cortex, AD+31/AD, p-value 0.3359): 0.91; 1-methylimidazoleacetate Fold Change (cortex, AD+31/AD, p-value 0.3448): 0.9; N-acetylmethionine Fold Change (cortex, AD+31/AD, p-value 0.3576): 0.96; arachidonoyl ethanolamide Fold Change (cortex, AD+31/AD, p-value 0.3632): 1.06; deoxycarnitine Fold Change (cortex, AD+31/AD, p-value 0.3877): 0.94; palmitoylcholine Fold Change (cortex, AD+31/AD, p-value 0.42): 1.09; putrescine Fold Change (cortex, AD+31/AD, p-value 0.4207): 1.08; adenosine 5'-diphosphoribose (ADP-ribose) Fold Change (cortex, AD+31/AD, p-value 0.4258): 0.94; margarate (17:0) Fold Change (cortex, AD+31/AD, p-value 0.4323): 1.24; phenol sulfate Fold Change (cortex, AD+31/AD, p-value 0.4423): 1.28; acetylcarnitine Fold Change (cortex, AD+31/AD, p-value 0.4578): 1.25; lactate Fold Change (cortex, AD+31/AD, p-value 0.4961): 1.08; acetyl CoA Fold Change (cortex, AD+31/AD, p-value 0.4998): 1.33; 3-hydroxybutyrate (BHBA) Fold Change (cortex, AD+31/AD, p-value 0.5074): 1.29; 2-hydroxystearate Fold Change (cortex, AD+31/AD, p-value 0.5156): 1.2; gamma-glutamylhistidine Fold Change (cortex, AD+31/AD, p-value 0.5232): 0.9; gulonate* Fold Change (cortex, AD+31/AD, p-value 0.5547): 0.96; 1-oleoyl-2-arachidonoyl-GPI (18:1/20:4) * Fold Change (cortex, AD+31/AD, p-value 0.5635): 1.02; 6-phosphogluconate Fold Change (cortex, AD+31/AD, p-value 0.6142): 0.86; adenosine 2'-monophosphate (2'-AMP) Fold Change (cortex, AD+31/AD, p-value 0.6144): 1.09; glucosamine-6-phosphate Fold Change (cortex, AD+31/AD, p-value 0.6542): 1.06; 1-palmitoyl-2-palmitoleoyl-GPC (16:0/16:1)* Fold Change (cortex, AD+31/AD, p-value 0.6549): 0.98; 1-(1-enyl-stearoyl)-2-arachidonoyl-GPE (P-18:0/20:4)* Fold Change (cortex, AD+31/AD, p-value 0.6588): 1.01; mannose Fold Change (cortex, AD+31/AD, p-value 0.6613): 0.9; UDP-galactose Fold Change (cortex, AD+31/AD, p-value 0.6737): 1.03; phosphoethanolamine Fold Change (cortex, AD+31/AD, p-value 0.6749): 0.98; sphingomyelin (d18:1/18:1, d18:2/18:0) Fold Change (cortex, AD+31/AD, p-value 0.6798): 1.03; sedoheptulose-7-phosphate Fold Change (cortex, AD+31/AD, p-value 0.7025): 0.98; 1-stearoyl-GPC (18:0) Fold Change (cortex, AD+31/AD, p-value 0.7211): 0.94; 1-palmitoyl-2-oleoyl-GPS (16:0/18:1) Fold Change (cortex, AD+31/AD, p-value 0.7273): 1.01; glucose 6-phosphate Fold Change (cortex, AD+31/AD, p-value 0.7454): 0.99; prolylglycine Fold Change (cortex, AD+31/AD, p-value 0.7821): 0.99; glycerophosphoethanolamine Fold Change (cortex, AD+31/AD, p-value 0.7927): 1.02; succinylcarnitine Fold Change (cortex, AD+31/AD, p-value 0.8024): 0.95; glutamate Fold Change (cortex, AD+31/AD, p-value 0.8146): 0.99; N-acetyl-glucosamine 1-phosphate Fold Change (cortex, AD+31/AD, p-value 0.868): 0.98; O-methyltyrosine Fold Change (cortex, AD+31/AD, p-value 0.8778): 0.98; galactose 1-phosphate Fold Change (cortex, AD+31/AD, p-value 0.8947): 1.05; 17-methylstearate Fold Change (cortex, AD+31/AD, p-value 0.9061): 1; 1-stearoyl-2-oleoyl-GPI (18:0/18:1)* Fold Change (cortex, AD+31/AD, p-value 0.9089): 1; lysine Fold Change (cortex, AD+31/AD, p-value 0.9193): 1; fructose-6-phosphate Fold Change (cortex, AD+31/AD, p-value 0.9322): 1.01; coenzyme A Fold Change (cortex, AD+31/AD, p-value 0.937): 1.03; oleoyl-oleoyl-glycerol (18:1/18:1) [2]* Fold Change (cortex, AD+31/AD, p-value 0.9411): 1
